Reference: patent US20060240011A1, “Use of nf-kappa b inhibitors for the treatment of mastitis” (priority 2002, published 2006)
“Also recorded” adds a separate entry of the source.

Tested on: NF-κB
Experiment: NF-κB electrophoretic mobility shift assay (EMSA) on cultured, treated milk cells from chronic mastitis-affected cows
Assay type: cell-based, Holstein-Friesian cows
Conditions: protein extraction 3 hours after treatment, versus untreated cells
Description: Isolated milk cells were centrifuged for 10 minutes at 300 g and the pellet was resuspended in 600 μl lysis buffer (0.1% nonidet P-40; 10 mM Tris HCl, pH 7.4; 10 mM NaCl; 3 mM MgCl2; 1 mM EDTA; 2 mM orthovanadate; 1 mM diisopropyl fluorophosphates (DFP); 10 μg/ml leupeptin; 10 μg/ml aprotinin). The cells were vortexed 15 seconds, kept on ice for 5 minutes, and centrifuged for 10 minutes at 300 g. The resulting pellet was resuspended in a KCl buffer (10 mM Hepes, pH 7.4; 400 mM KCl; 10% Glycerol; 2 mM EDTA; 1 mM Ethylene glycol-bis[β-aminoethyl ether]-N, N,N′N′-tetraacetic acid (EGTA); 1% nonidet P-40, 1 mM dithiothreitol (DTT); 2 mM orthovanadate; 10 μg/ml leupeptin; 10 μg/ml aprotinin; 1 mM DFP) and kept at 4° C. for 10 minutes before centrifugation for 15 minutes at 12,000 g. The supernatant was diluted three times and stored at −80° C. until use.
Binding reactions were performed for 30 minutes at room temperature with 5 μg of total protein extracts in 20 mM Hepes (pH 7.9), 10 mM KCl, 0.2 mM EDTA, 20% (v/v) glycerol, 1% (w/v) acetylated bovine serum albumin, 3 μg of poly(dI-dC) (Amersham Pharmacia Biotech, Aylesbury, U.K.), 1 mM DTT (dithiothreitol), 1 mM phenylmethylsulfonyl fluoride, and 100,000 cpm of ^32P-labeled double-stranded oligonucleotide probes. Probes were prepared by annealing the appropriate single-stranded oligonucleotides (Eurogentech, Liège, Belgium) at 65° C. for 10 minutes in 10 mM Tris, 1 mM EDTA, and 10 mM NaCl, followed by slow cooling to room temperature. The probes were labeled by end-filling with the Klenow fragment of E. coli DNA polymerase I (Roche, Mannheim, Germany), with [^32P]dATP and [^32P]dCTP (Dupont-New England Nuclear, Les Ulis, Fance). Labeled probes were purified by spin chromatography on Sephadex G-25 columns (Roche). […] The amount of specific complexes was determined by photodensitometry of the autoradiography. […] The NF-κB activity was assessed by photodensitometry of the specific bands. […]

SMILES	NF-κB activity (DNA-binding activity by EMSA, photodensitometry) (15d-PGJ2 at 40 μM, 50 μM, 60 μM and 80 μM)	NF-κB activity (DNA-binding activity by EMSA, photodensitometry) (gliotoxine at 1 μl/ml)	NF-κB activity (DNA-binding activity by EMSA, photodensitometry) (gliotoxine at 1 μl/ml, listed as gliotoxine)
CCCCCC=CC=C1C(=O)C=C[C@@H]1CC=CCCCC(=O)O [15d-PGJ2, 15-deoxy-Δ.12,14-prostaglandin J2]	reduced NF-κB activity; also recorded: inhibit NF-κB activation	–	–
CN1C(=O)[C@]23CC4=CC=C[C@H](O)[C@H]4N2C(=O)[C@@]1(CO)SS3 [glyotoxine, gliotoxin]	–	reduced NF-κB activity	inhibit NF-κB activation
